Reference: ChEMBL document CHEMBL1155184, “Kojic acid-amino acid conjugates as tyrosinase inhibitors” (Bioorg Med Chem Lett, 2009)

Target: T1, Tyrosinase (Agaricus bisporus, UniProt O42713)
T1 sequence (O42713 whole entry): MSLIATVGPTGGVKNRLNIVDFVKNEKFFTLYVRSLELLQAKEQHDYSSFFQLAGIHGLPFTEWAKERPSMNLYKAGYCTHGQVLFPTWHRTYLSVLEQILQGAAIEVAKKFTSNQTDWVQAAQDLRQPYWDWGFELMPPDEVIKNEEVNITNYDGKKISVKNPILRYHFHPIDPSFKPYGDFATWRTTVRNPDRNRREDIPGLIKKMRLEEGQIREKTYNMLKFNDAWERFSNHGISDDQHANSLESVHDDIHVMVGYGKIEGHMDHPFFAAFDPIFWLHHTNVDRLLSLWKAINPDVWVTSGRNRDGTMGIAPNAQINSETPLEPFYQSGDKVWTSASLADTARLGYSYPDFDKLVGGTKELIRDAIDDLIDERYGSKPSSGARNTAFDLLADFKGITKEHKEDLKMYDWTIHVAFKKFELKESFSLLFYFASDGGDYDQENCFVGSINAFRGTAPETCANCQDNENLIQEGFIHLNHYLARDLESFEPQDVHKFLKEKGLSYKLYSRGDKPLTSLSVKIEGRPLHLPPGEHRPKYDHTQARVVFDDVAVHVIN
Assay: Inhibition of mushroom tyrosinase assessed as oxidation of L-DOPA

- IC50: 14.7 µM
- Ki: 11 µM
Structure (SMILES): NC(=O)[C@H](Cc1ccccc1)NC(=O)OCc1cc(=O)c(O)co1
